How the values were obtained:
Format in all cases: in vivo
Settings in all cases: after 13 d
corn (Zea mays, ZEAMX) [1] = test: Test A pre-emergence, corn
Description: (§1) Seeds of corn (Zea mays, ZEAMX), giant foxtail (Setaria faberi, SETFA), barnyardgrass (Echinochloa crus-galli, ECHCG), ivy-leaved morning glory (Ipomoea hederacea, IPOHE), redroot pigweed (Amaranthus retroflexus, AMARE) and velvetleaf (Abutilon theophrasti, ABUTH) were sown in standard soil in pots. After cultivation for one day under controlled conditions in a glasshouse (at 24/16° C., day/night; 14 h light; 65% humidity), the plants were sprayed with an aqueous spray solution derived from the formulation of the technical active ingredient in acetone/water (50:50) solution containing 0.5% Tween 20 (polyoxyethylene sorbitan monolaurate, CAS RN 9005-64-5) to give a final dose of 15.625, 62.5 or 250 g/ha of test compound.
(§2) The test plants were then grown under controlled conditions in a glasshouse (at 24/16° C., day/night; 14 h light; 65% humidity) and watered twice daily. After 13 d the test was evaluated (100=total damage to plant; 0=no damage to plant).

[2] = tested on: giant foxtail (Setaria faberi, SETFA); test: Test A post-emergence, giant foxtail
Description: as §1, with “IPOHE)),” for “IPOHE),”, “8 d” for “one day”
(§3) The test plants were then grown on under controlled conditions in a glasshouse (at 24/16° C., day/night; 14 h light; 65% humidity) and watered twice daily. After 13 d the test was evaluated (100=total damage to plant; 0=no damage to plant).

[3] = tested on: ivy-leaved morning glory (Ipomoea hederacea, IPOHE); test: Test A post-emergence, ivy-leaved morning glory
Description: as §1, with “IPOHE)),” for “IPOHE),”, “8 d” for “one day”
as §3

[4] = tested on: velvetleaf (Abutilon theophrasti, ABUTH); test: Test A pre-emergence, velvetleaf
Description: as §1, §2

[5] = tested on: ivy-leaved morning glory (Ipomoea hederacea, IPOHE); test: Test A pre-emergence, ivy-leaved morning glory
Description: as §1, §2

[6] = tested on: velvetleaf (Abutilon theophrasti, ABUTH); test: Test A post-emergence, velvetleaf
Description: as §1, with “IPOHE)),” for “IPOHE),”, “8 d” for “one day”
as §3

[7] = tested on: redroot pigweed (Amaranthus retroflexus, AMARE); test: Test A pre-emergence, redroot pigweed
Description: as §1, §2

corn (Zea mays, ZEAMX) [8] = test: Test A post-emergence, corn
Description: as §1, with “IPOHE)),” for “IPOHE),”, “8 d” for “one day”
as §3

[9] = tested on: redroot pigweed (Amaranthus retroflexus, AMARE); test: Test A post-emergence, redroot pigweed
Description: as §1, with “IPOHE)),” for “IPOHE),”, “8 d” for “one day”
as §3

[10] = tested on: barnyardgrass (Echinochloa crus-galli, ECHCG); test: Test A pre-emergence, barnyardgrass
Description: as §1, §2

[11] = tested on: barnyardgrass (Echinochloa crus-galli, ECHCG); test: Test A post-emergence, barnyardgrass
Description: as §1, with “IPOHE)),” for “IPOHE),”, “8 d” for “one day”
as §3

[12] = tested on: giant foxtail (Setaria faberi, SETFA); test: Test A pre-emergence, giant foxtail
Description: as §1, §2

| SMILES | damage to plant (100=total damage; 0=no damage) ZEAMX (corn (Zea mays, ZEAMX) [1]; Pre-Emergence at 15.625 g/ha) | damage to plant (100=total damage; 0=no damage) ZEAMX (corn (Zea mays, ZEAMX) [1]; Pre-Emergence at 62.5 g/ha) | damage to plant (100=total damage; 0=no damage) ZEAMX (corn (Zea mays, ZEAMX) [1]; Pre-Emergence at 250 g/ha) | damage to plant (100=total damage; 0=no damage) SETFA ([2]; Post-Emergence at 15.625 g/ha) | damage to plant (100=total damage; 0=no damage) SETFA ([2]; Post-Emergence at 62.5 g/ha) | damage to plant (100=total damage; 0=no damage) SETFA ([2]; Post-Emergence at 250 g/ha) | damage to plant (100=total damage; 0=no damage) IPOHE ([3]; Post-Emergence at 15.625 g/ha) | damage to plant (100=total damage; 0=no damage) IPOHE ([3]; Post-Emergence at 62.5 g/ha) | damage to plant (100=total damage; 0=no damage) IPOHE ([3]; Post-Emergence at 250 g/ha) | damage to plant (100=total damage; 0=no damage) ABUTH ([4]; Pre-Emergence at 15.625 g/ha) | damage to plant (100=total damage; 0=no damage) ABUTH ([4]; Pre-Emergence at 62.5 g/ha) | damage to plant (100=total damage; 0=no damage) ABUTH ([4]; Pre-Emergence at 250 g/ha) | damage to plant (100=total damage; 0=no damage) IPOHE ([5]; Pre-Emergence at 15.625 g/ha) | damage to plant (100=total damage; 0=no damage) IPOHE ([5]; Pre-Emergence at 62.5 g/ha) | damage to plant (100=total damage; 0=no damage) IPOHE ([5]; Pre-Emergence at 250 g/ha) | damage to plant (100=total damage; 0=no damage) ABUTH ([6]; Post-Emergence at 15.625 g/ha) | damage to plant (100=total damage; 0=no damage) ABUTH ([6]; Post-Emergence at 62.5 g/ha) | damage to plant (100=total damage; 0=no damage) ABUTH ([6]; Post-Emergence at 250 g/ha) | damage to plant (100=total damage; 0=no damage) AMARE ([7]; Pre-Emergence at 15.625 g/ha) | damage to plant (100=total damage; 0=no damage) AMARE ([7]; Pre-Emergence at 62.5 g/ha) | other results |
| --- | --- | --- | --- | --- | --- | --- | --- | --- | --- | --- | --- | --- | --- | --- | --- | --- | --- | --- | --- | --- | --- |
| CN1CC(c2cc(Cl)n(C)n2)C(C(=O)Nc2cccc(F)c2F)C1=O (racemic) [Compound 27] | 0 | 10 | 10 | 10 | 50 | 70 | 10 | 10 | 20 | 0 | 0 | 0 | 0 | 0 | 10 | 0 | 0 | 0 | 0 | 0 | damage to plant (100=total damage; 0=no damage) AMARE ([7]; Pre-Emergence at 250 g/ha): 0; damage to plant (100=total damage; 0=no damage) ZEAMX (corn (Zea mays, ZEAMX) [8]; Post-Emergence at 15.625 g/ha): 0; damage to plant (100=total damage; 0=no damage) ZEAMX (corn (Zea mays, ZEAMX) [8]; Post-Emergence at 62.5 g/ha): 0; damage to plant (100=total damage; 0=no damage) ZEAMX (corn (Zea mays, ZEAMX) [8]; Post-Emergence at 250 g/ha): 10; damage to plant (100=total damage; 0=no damage) AMARE ([9]; Post-Emergence at 15.625 g/ha): 30; damage to plant (100=total damage; 0=no damage) AMARE ([9]; Post-Emergence at 62.5 g/ha): 40; damage to plant (100=total damage; 0=no damage) AMARE ([9]; Post-Emergence at 250 g/ha): 30; damage to plant (100=total damage; 0=no damage) ECHCG ([10]; Pre-Emergence at 15.625 g/ha): 70; damage to plant (100=total damage; 0=no damage) ECHCG ([10]; Pre-Emergence at 62.5 g/ha): 90; damage to plant (100=total damage; 0=no damage) ECHCG ([10]; Pre-Emergence at 250 g/ha): 90; damage to plant (100=total damage; 0=no damage) ECHCG ([11]; Post-Emergence at 15.625 g/ha): 20; damage to plant (100=total damage; 0=no damage) ECHCG ([11]; Post-Emergence at 62.5 g/ha): 50; damage to plant (100=total damage; 0=no damage) ECHCG ([11]; Post-Emergence at 250 g/ha): 70; damage to plant (100=total damage; 0=no damage) SETFA ([12]; Pre-Emergence at 15.625 g/ha): 60; damage to plant (100=total damage; 0=no damage) SETFA ([12]; Pre-Emergence at 62.5 g/ha): 80; damage to plant (100=total damage; 0=no damage) SETFA ([12]; Pre-Emergence at 250 g/ha): 90 |
| CCn1nc([C@H]2CN(C)C(=O)[C@@H]2C(=O)Nc2ccc(F)nc2F)c2cccc(F)c21 [Compound 11] | 0 | 0 | 20 | 60 | 80 | 80 | 0 | 0 | 0 | 0 | 0 | 0 | 0 | 0 | 10 | 0 | 0 | 0 | 0 | 0 | damage to plant (100=total damage; 0=no damage) AMARE ([7]; Pre-Emergence at 250 g/ha): 0; damage to plant (100=total damage; 0=no damage) ZEAMX (corn (Zea mays, ZEAMX) [8]; Post-Emergence at 15.625 g/ha): 10; damage to plant (100=total damage; 0=no damage) ZEAMX (corn (Zea mays, ZEAMX) [8]; Post-Emergence at 62.5 g/ha): 10; damage to plant (100=total damage; 0=no damage) ZEAMX (corn (Zea mays, ZEAMX) [8]; Post-Emergence at 250 g/ha): 40; damage to plant (100=total damage; 0=no damage) AMARE ([9]; Post-Emergence at 15.625 g/ha): 0; damage to plant (100=total damage; 0=no damage) AMARE ([9]; Post-Emergence at 62.5 g/ha): 0; damage to plant (100=total damage; 0=no damage) AMARE ([9]; Post-Emergence at 250 g/ha): 0; damage to plant (100=total damage; 0=no damage) ECHCG ([10]; Pre-Emergence at 15.625 g/ha): 20; damage to plant (100=total damage; 0=no damage) ECHCG ([10]; Pre-Emergence at 62.5 g/ha): 90; damage to plant (100=total damage; 0=no damage) ECHCG ([10]; Pre-Emergence at 250 g/ha): 90; damage to plant (100=total damage; 0=no damage) ECHCG ([11]; Post-Emergence at 15.625 g/ha): 50; damage to plant (100=total damage; 0=no damage) ECHCG ([11]; Post-Emergence at 62.5 g/ha): 90; damage to plant (100=total damage; 0=no damage) ECHCG ([11]; Post-Emergence at 250 g/ha): 90; damage to plant (100=total damage; 0=no damage) SETFA ([12]; Pre-Emergence at 15.625 g/ha): 80; damage to plant (100=total damage; 0=no damage) SETFA ([12]; Pre-Emergence at 62.5 g/ha): 90; damage to plant (100=total damage; 0=no damage) SETFA ([12]; Pre-Emergence at 250 g/ha): 90 |

From patent publication US20220281848A1, “PYRAZOLE-SUBSTITUTED PYRROLIDINONES AS HERBICIDES” (FMC Corporation, priority 2019, published 2022)
